According to patent publication US11028072B2, “2,4-diamino-6-ethylpyrimidine derivatives with antimalarial activities against Plasmodium falciparum” (National Science and Technology Development Agency, priority 2015, dated 2021):
Read-outs that look alike come from different tables or passages of the source.

Tests used:
[1] = target: quadruple mutant N51I + C59R + S108N + I164L (QM) pfDHFR (Plasmodium falciparum, UniProt P13922, I164L/N51I); assay: Inhibition of quadruple mutant pfDHFR (Ki); type: biochemical
Sequence of quadruple mutant N51I + C59R + S108N + I164L (QM) pfDHFR (P13922 whole entry N51I/I164L): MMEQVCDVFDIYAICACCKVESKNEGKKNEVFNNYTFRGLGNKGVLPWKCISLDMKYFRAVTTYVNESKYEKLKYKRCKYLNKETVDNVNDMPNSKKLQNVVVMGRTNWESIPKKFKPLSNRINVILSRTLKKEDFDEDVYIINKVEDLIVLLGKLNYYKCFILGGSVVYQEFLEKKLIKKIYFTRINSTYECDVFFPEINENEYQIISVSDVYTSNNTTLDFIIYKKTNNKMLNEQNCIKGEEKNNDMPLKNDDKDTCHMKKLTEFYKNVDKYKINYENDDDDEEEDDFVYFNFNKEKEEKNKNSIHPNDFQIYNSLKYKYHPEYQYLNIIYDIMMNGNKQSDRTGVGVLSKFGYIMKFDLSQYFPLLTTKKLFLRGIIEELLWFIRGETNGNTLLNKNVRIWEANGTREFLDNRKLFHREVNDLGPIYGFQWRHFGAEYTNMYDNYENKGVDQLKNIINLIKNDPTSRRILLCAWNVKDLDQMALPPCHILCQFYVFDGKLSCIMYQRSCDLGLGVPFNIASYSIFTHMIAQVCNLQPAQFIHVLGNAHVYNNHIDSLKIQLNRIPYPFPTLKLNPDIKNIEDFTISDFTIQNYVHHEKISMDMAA
Method: (§1) The synthesized 2,4-diamino-6-ethylpyrimdine derivatives as the hydrochloride salts were tested for the activities against Plasmodium falciparum (P. falciparum) according to the standard methods. These include the inhibition of dihydrofolate reductase (DHFR) enzymes of P. falciparum including, wild type (WT) and quadruple mutants (N51IC59RS108NI164L) (QM). The inhibition was expressed as inhibition constants (Ki) in nano molar (nM).

[2] = target: T1, Human dihydrofolate reductase (hDHFR) (Homo sapiens, UniProt P00374); assay: Inhibition of human dihydrofolate reductase (Ki); type: biochemical; settings: human DHFR; hydrochloride salts
T1 sequence (P00374 1-187): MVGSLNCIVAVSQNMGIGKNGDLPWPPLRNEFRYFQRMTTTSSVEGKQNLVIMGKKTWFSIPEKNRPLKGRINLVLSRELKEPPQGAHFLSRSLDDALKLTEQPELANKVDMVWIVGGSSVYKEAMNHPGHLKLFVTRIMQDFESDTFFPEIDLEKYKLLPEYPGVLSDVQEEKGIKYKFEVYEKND

[3] = target: wild type (WT) pfDHFR (Plasmodium falciparum, UniProt P13922, N108S/R59C); assay: Inhibition of wild type pfDHFR (Ki); type: biochemical
Sequence of wild type (WT) pfDHFR (P13922 whole entry R59C/N108S): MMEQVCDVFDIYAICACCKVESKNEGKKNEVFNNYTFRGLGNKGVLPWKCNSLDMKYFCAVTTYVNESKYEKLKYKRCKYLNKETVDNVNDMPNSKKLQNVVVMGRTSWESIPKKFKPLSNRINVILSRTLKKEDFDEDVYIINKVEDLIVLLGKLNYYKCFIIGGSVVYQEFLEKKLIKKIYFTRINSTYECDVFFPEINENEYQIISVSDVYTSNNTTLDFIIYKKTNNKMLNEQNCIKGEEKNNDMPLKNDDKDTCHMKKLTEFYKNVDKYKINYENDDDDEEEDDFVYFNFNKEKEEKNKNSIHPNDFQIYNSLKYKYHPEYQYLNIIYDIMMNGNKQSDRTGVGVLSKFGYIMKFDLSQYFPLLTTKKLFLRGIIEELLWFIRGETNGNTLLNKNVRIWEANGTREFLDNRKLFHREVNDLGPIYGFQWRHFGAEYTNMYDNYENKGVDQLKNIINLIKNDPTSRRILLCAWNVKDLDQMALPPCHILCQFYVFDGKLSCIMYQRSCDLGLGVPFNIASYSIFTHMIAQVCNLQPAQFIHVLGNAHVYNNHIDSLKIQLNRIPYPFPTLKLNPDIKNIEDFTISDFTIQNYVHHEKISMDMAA
Method: as §1

[4] = system: P. falciparum V1/S (N51I + C59R + S108 + I164L); assay: microbe, parasite or virus in culture; type: cell-based, Plasmodium falciparum; settings: Plasmodium falciparum, read-out: IC50 P. falciparum V1/S
Excerpt: (§2) In Vitro Antimalarial Activites Against P. falciparum and Cytotoxicity Towards Mammalian Cells (Vero Cells)

[5] = system: P. falciparum TM4/8.2 (wild type); assay: microbe, parasite or virus in culture; type: cell-based, Plasmodium falciparum; settings: Plasmodium falciparum, read-out: IC50 P. falciparum TM4/8.2 (WT)
Excerpt: as §2

[6] = in vitro; settings: African green monkey
Excerpt: as §2

[7] = in vitro, quadruple mutant strain V1/S
[8] = in vitro, wild-type strain TM4/8.2

Structure (SMILES)	Ki [1]	Ki [2]	Ki [3]	IC50 [4, 7]	IC50 [5, 8]	IC50 [6]	IC50 [4]	IC50 [5]
CCc1nc(N)nc(N)c1OCc1cc(-c2cccc(C(F)(F)F)c2)no1 [Compound 37]	106 ± 17.3 nM	> 100000 nM	2.12 ± 0.18 nM	20200 ± 1370 nM	3260 ± 810 nM	37100 ± 1810 nM		
CCc1nc(N)nc(N)c1OCc1cc(-c2cccc(OC)c2)no1 [Compound 38]	22.8 ± 3.09 nM	1080 ± 31 nM	0.55 ± 0.1 nM	> 25000 nM	570 ± 190 nM	> 25000 nM		
CCc1nc(N)nc(N)c1OCc1cc(-c2cccc([N+](=O)[O-])c2)no1 [Compound 39]	49 ± 6.73 nM	> 100000 nM	1.33 ± 0.17 nM	9080 ± 1050 nM	1160 ± 550 nM	> 50000 nM		
CCc1nc(N)nc(N)c1OCc1cc(-c2cccc(C(=O)O)c2)no1 [Compound 40]	2.12 ± 0.17 nM	279 ± 24.7 nM	1.28 ± 0.13 nM	3380 ± 1060 nM	280 ± 130 nM	> 50000 nM		
CCc1nc(N)nc(N)c1OCc1cc(-c2ccc(OC)cc2)no1 [Compound 42]	64.4 ± 7.59 nM	1660 ± 76.7 nM	1.15 ± 0.18 nM	> 25000 nM	1190 ± 360 nM	> 25000 nM		
CCc1nc(N)nc(N)c1OCc1cc(-c2ccc([N+](=O)[O-])cc2)no1 [Compound 43]	306 ± 36.5 nM	> 100000 nM	4.02 ± 0.57 nM	> 50000 nM	33200 ± 14200 nM	> 50000 nM		
CCc1nc(N)nc(N)c1OCc1cc(-c2ccc(C(=O)O)cc2)no1 [Compound 44]	245 ± 34.6 nM	> 100000 nM	3.75 ± 0.31 nM	> 10000 nM	7770 ± 1470 nM	> 10000 nM		
CCc1nc(N)nc(N)c1OCCCc1cc(-c2ccc(Cl)cc2)no1 [Compound 45]	3.9 ± 0.68 nM	37 ± 5.36 nM	1.99 ± 0.43 nM	6370 ± 1970 nM	270 ± 80 nM	> 50000 nM		
CCc1nc(N)nc(N)c1OCCCc1cc(-c2cccc(C(F)(F)F)c2)no1 [Compound 46]	1.74 ± 0.14 nM	26.12 ± 0.24 nM	0.39 ± 0.03 nM			10500 nM	17700 ± 4740 nM	130 ± 40 nM
CCc1nc(N)nc(N)c1OCCCc1cc(-c2cccc(C#N)c2)no1 [Compound 47]	1.02 ± 0.07 nM	21.4 ± 0.91 nM	0.27 ± 0.03 nM			560 nM	5510 ± 470 nM	40 ± 7 nM
CCc1nc(N)nc(N)c1OCCCc1cc(-c2cccc(C(=O)OC)c2)no1 [Compound 48]	0.87 ± 0.15 nM	25.2 ± 8.9 nM	0.26 ± 0.07 nM	100 ± 30 nM	45 ± 1.5 nM	760 nM		
CCc1nc(N)nc(N)c1OCc1coc(-c2ccccc2)n1 [Compound 50]	55.6 ± 8.79 nM	292 ± 22.2 nM	1.33 ± 0.07 nM	13700 ± 4080 nM	2250 ± 710 nM	> 50000 nM		
CCc1nc(N)nc(N)c1OCc1coc(-c2cccc(C)c2)n1 [Compound 51]	48 ± 1.54 nM	256 ± 9.25 nM	0.44 ± 0.05 nM	21900 ± 5880 nM	830 ± 50 nM	75900 ± 11000 nM		
CCc1nc(N)nc(N)c1OCc1coc(-c2cccc([N+](=O)[O-])c2)n1 [Compound 52]	93.2 ± 25 nM	> 100000 nM	2.63 ± 0.26 nM	15100 ± 1490 nM	2660 ± 310 nM	> 50000 nM		
CCc1nc(N)nc(N)c1OCc1coc(-c2cccc(OCC(=O)OCc3ccccc3)c2)n1 [Compound 53]	45.5 ± 5.02 nM	681 ± 70.3 nM	0.83 ± 0.08 nM	> 10000 nM	1760 ± 670 nM	> 10000 nM		
CCc1nc(N)nc(N)c1OCc1coc(-c2cccc(OCC(=O)O)c2)n1 [Compound 54]	261 ± 19 nM	540 ± 25.2 nM	1.19 ± 0.15 nM	> 50000 nM	3820 ± 210 nM	> 50000 nM		
CCc1nc(N)nc(N)c1OCc1coc(-c2ccc(Cl)cc2)n1 [Compound 55]	32.9 ± 4.13 nM	> 100000 nM	1.14 ± 0.17 nM	> 25000 nM	870 ± 110 nM	> 25000 nM		
CCc1nc(N)nc(N)c1OCc1coc(-c2ccc(OCC(=O)OCc3ccccc3)cc2)n1 [Compound 56]	46.7 ± 4.68 nM	> 100000 nM	0.81 ± 0.07 nM	23300 ± 2470 nM	580 ± 220 nM	> 100000 nM		
CCc1nc(N)nc(N)c1OCc1coc(-c2ccc(OCC(=O)O)cc2)n1 [Compound 57]	78 ± 6.44 nM	716 ± 78.3 nM	0.84 ± 0.08 nM	> 50000 nM	730 ± 170 nM	> 50000 nM		

Structure (SMILES)	Ki [1]	Ki [2]	Ki [3]	IC50 [4, 7]	IC50 [5, 8]	IC50 [6]	IC50 [4]	IC50 [5]
CCc1nc(N)nc(N)c1OCCc1coc(-c2ccccc2)n1 [Compound 58]	4.63 ± 0.22 nM	20.4 ± 2.1 nM	0.55 ± 0.02 nM			5590 ± 1840 nM	53100 ± 15200 nM	48 ± 21 nM
CCc1nc(N)nc(N)c1OCCc1coc(-c2ccc(C(=O)O)cc2)n1 [Compound 59]	1.56 ± 0.07 nM	17.4 ± 1.14 nM	0.26 ± 0.01 nM	> 10000 nM	52 ± 10 nM	> 10000 nM		
CCc1nc(N)nc(N)c1OCc1csc(-c2ccccc2)n1 [Compound 60]	38.8 ± 5.58 nM	276 ± 16.7 nM	1.02 ± 0.14 nM	20800 ± 1860 nM	1200 ± 380 nM	> 50000 nM		
CCc1nc(N)nc(N)c1OCc1csc(-c2cccc(C)c2)n1 [Compound 61]	37.7 ± 3.04 nM	131.5 ± 0.88 nM	0.34 ± 0.05 nM	18000 ± 7770 nM	840 ± 100 nM	31300 ± 7750 nM		
CCc1nc(N)nc(N)c1OCc1csc(-c2cccc([N+](=O)[O-])c2)n1 [Compound 62]	53.2 ± 8.93 nM	134 ± 7.24 nM	0.74 ± 0.07 nM	3980 ± 520 nM	460 ± 70 nM	17900 ± 6230 nM		
CCc1nc(N)nc(N)c1OCc1csc(-c2cccc(OCC(=O)OCc3ccccc3)c2)n1 [Compound 63]	33.9 ± 1.85 nM	118 ± 14.8 nM	0.75 ± 0.1 nM	> 50000 nM	400 ± 70 nM	> 50000 nM		
CCc1nc(N)nc(N)c1OCc1csc(-c2cccc(OCC(=O)O)c2)n1 [Compound 64]	41.3 ± 7.41 nM	184 ± 21.4 nM	0.6 ± 0.04 nM	> 50000 nM	550 ± 120 nM	> 50000 nM		
CCc1nc(N)nc(N)c1OCc1csc(-c2cccc(C(=O)OC)c2)n1 [Compound 65]	56.7 ± 5.79 nM	195 ± 8.2 nM	0.51 ± 0.04 nM			> 50000 nM	> 50000 nM	400 ± 80 nM
CCc1nc(N)nc(N)c1OCc1csc(-c2ccc(C)cc2)n1 [Compound 67]	27.3 ± 1.45 nM	> 100000 nM	0.81 ± 0.05 nM	19000 ± 6700 nM	1020 ± 530 nM	28900 ± 5740 nM		
CCc1nc(N)nc(N)c1OCc1csc(-c2ccc(OC)cc2)n1 [Compound 68]	16 ± 1.27 nM	186 ± 4.66 nM	0.46 ± 0.06 nM			43500 ± 13400 nM	12900 ± 5710 nM	450 ± 90 nM
CCc1nc(N)nc(N)c1OCc1csc(-c2ccc(F)cc2)n1 [Compound 69]	45.6 ± 4.68 nM	318 ± 29.7 nM	0.9 ± 0.18 nM	> 25000 nM	790 ± 380 nM	> 25000 nM		
CCc1nc(N)nc(N)c1OCc1csc(-c2ccc(Cl)cc2)n1 [Compound 70]	30.2 ± 1.59 nM	286 ± 47.1 nM	0.74 ± 0.09 nM	24300 ± 9370 nM	1180 ± 30 nM	63500 ± 17600 nM		
CCc1nc(N)nc(N)c1OCc1csc(-c2ccc(Br)cc2)n1 [Compound 71]	24.3 ± 1.75 nM	203 ± 27.2 nM	0.76 ± 0.15 nM	18700 ± 1900 nM	1090 ± 440 nM	> 25000 nM		
CCc1nc(N)nc(N)c1OCc1csc(-c2ccc(OCC(=O)OCc3ccccc3)cc2)n1 [Compound 72]	30.3 ± 5.63 nM	140 ± 22 nM	0.8 ± 0.09 nM	> 50000 nM	230 ± 30 nM	> 50000 nM		
CCc1nc(N)nc(N)c1OCc1csc(-c2ccc(OCC(=O)O)cc2)n1 [Compound 73]	28.9 ± 2.56 nM	357 ± 34.4 nM	0.65 ± 0.14 nM	> 50000 nM	41 ± 6 nM	> 50000 nM		
CCc1nc(N)nc(N)c1OCc1csc(-c2ccc(C(=O)OC)cc2)n1 [Compound 74]	34 ± 5.42 nM	447 ± 110 nM	0.65 ± 0.06 nM			> 50000 nM	15900 ± 2110 nM	400 ± 130 nM
CCc1nc(N)nc(N)c1OCc1csc(-c2ccc(C(=O)O)cc2)n1 [Compound 75]	39.2 ± 3.82 nM	301 ± 24.4 nM	0.69 ± 0.12 nM	> 50000 nM	2650 ± 430 nM	> 50000 nM		
CCc1nc(N)nc(N)c1OCCc1csc(-c2ccccc2)n1 [Compound 76]	7.28 ± 0.69 nM	21 ± 1.24 nM	0.94 ± 0.16 nM	17800 ± 6800 nM	11 ± 2 nM	1330 ± 460 nM		
